Data on 1 molecule can be found in PMC8533089, “Characteristics of Neurokinin-3 Receptor and Its Binding Sites by Mutational Analysis” (Biology, 2021).

SMILES strings stand for the structures. “Also recorded” adds a separate entry of the source.

For one test, the system named is milt volume. Briefly: 14-day in vivo experiment: milt volume / sperm production. More on the design: species or system adult male tilapia (Oreochromis niloticus). The settings on record: 500 µg/kg BW IP every 48 h; days 7 and 14; six fish per group; versus control. The protocol:
(§1) Adult male tilapia (BW 87.29 ± 26.1 g; gonado-somatic index (GSI 0.21% ± 0.36%) were IP injected with SB-222200 (500 µg/kg BW in 25% DMSO) and saline with 25% DMSO as a control every 48 h during a 14-day period. Blood was sampled every 48 h. Milt volume was collected from 6 fish from each group 7 and 14 days after the first injection, generally according to [55].

The subject of another test is LH plasma levels. Briefly: In vivo effect of NKB antagonists on LH plasma levels (ELISA). Also noted: species or system adult male tilapia (Oreochromis niloticus). The protocol:
(§2) The levels of FSH, LH and GH in the plasma were measured by specific competitive enzyme-linked immunosorbent assay (ELISA), developed for tilapia, based on recombinant gonadotropins or GH that were created by using the yeast Pichia pastoris. For the ELISAs, we used primary antibody antisera against GH [51], FSHβ [52], or against rtLHβ [53], and rtFSHβα [52], rtLHβ [53] or tiGH for the standard curves. Sensitivity for the plasma measurements were 15.84 pg/mL for LH, 0.24 pg/mL for FSH and 30.0 pg/mL for GH. The inter-assay coefficient of variation (CV) was 14.8, 12.5, and 13.0%, while intra-assay CV was 7.2, 8.0, and 8.0% for LH, FSH and GH, respectively.
(§3) Adult male tilapia (BW 89.29 ± 32.93 g; gonado-somatic index (GSI) 0.24% ± 0.40%) were injected IP (intraperitoneal) with NKB antagonists, SB-222200 or Osanetant (100 µg/kg BW), and after 0.5 h, a second injection of sGnRHa (10 µg/kg BW) was added. Control groups were injected with sGnRHa ([DAla^6, Pro^9-Net]-mammalian GnRH; Bachem, Budendorf, Switzerland) 10 µg/kg BW) as a positive control. The fish were bled from the caudal blood vessels into heparinized syringes 0, 0.5, 2, 6 and 24 h after injection. This time course is according to standard protocols used previously to test the effect of GnRH on circulating levels of LH, FSH, and GH in tilapia. Blood samples were collected from the caudal vasculature and centrifuged (3200 rpm for 30 min at 4 °C) (Centrifuge: Fresco 17, Rotor: 75003424, Thermo Scientific™, Langenselbold Germany) to obtain plasma samples, which were stored at −20 °C until assayed. Three independent experiments were carried out for the in-vivo studies.
(An ELISA detects its analyte on a solid surface through an enzyme-linked reagent.)

Test [1] relates to plasma GH and gonadotropins. Briefly: 14-day in vivo experiment: plasma GH and gonadotropins (ELISA). More on the design: species or system adult male tilapia (Oreochromis niloticus). Particulars: 500 µg/kg BW IP every 48 h, 14 days, versus control. How it is done: as §2, §1
Test [2] deals with testicular cell composition. Briefly: 14-day in vivo experiment: testicular histology and cell composition. More on the design: species or system adult male tilapia (Oreochromis niloticus). How it is done:
as §1
Testes were sampled for histology at 14 days, and testicular cell composition was analyzed. Testes were fixed for 24 h, after which a portion was removed (~5 mm in length) from the center of the larger right testicular lobe for histological processing. Samples were rinsed in distilled water, dehydrated in an alcohol series, cleared in xylene, embedded in paraffin, serially sectioned at 4 μm in the transverse plane, and stained with hematoxylin and eosin using standard histological techniques. Photomicrographs were then taken (4× objective) of 3 randomly chosen sections from each individual for analysis of testicular cell composition. Randomly generated points (n = 50) were overlaid on each photograph (CPCe software), and the cell type underneath each crosshair point was identified. A minimum of 50 points was necessary to adequately determine the percentage of cell types. Cell types were identified based on previous descriptions in this and other related teleost species reviewed in [57], and the following cells were quantified: spermatogonia, spermatids, and spermatozoa (mature sperm). Each cell type was then expressed as a percentage of the total, and averaged across the 3 sections to obtain a mean for each individual.

The test system of the next test is FSH plasma levels. Briefly: In vivo effect of NKB antagonists on FSH plasma levels (ELISA). Also noted: species or system adult male tilapia (Oreochromis niloticus). The settings on record: antagonist 100 µg/kg BW IP, sGnRHa 10 µg/kg BW after 0.5 h; n = 10. How it is done:
as §2
as §3, with “Blood samples were collected from the caudal vasculature and centrifuged (3200 rpm for 30 min at 4 °C) (Centrifuge: Fresco 17, Rotor: 75003424, Thermo Scientific™, Langenselbold Germany) to obtain plasma samples, which were stored at −20 °C until assayed. Three independent experiments were carried out for the in-vivo studies.” left out

For another test, the system named is 11-KT plasma levels. Briefly: 14-day in vivo experiment: plasma 11-KT (ELISA). The settings on record: 500 µg/kg BW IP every 48 h, 14 days; n = 6. More on the design: species or system adult male tilapia (Oreochromis niloticus). How it is done:
as §1
11-KT levels were determined by ELISA, according to [52], using acetylcholine-esterase as a label. The anti- 11-KT was donated by Dr. D.E. Kime (Sheffield, UK). All samples were analyzed in duplicate, and for each ELISA plate, a separate standard curve was run. The lower limits of detection were 0.93 for 11-KT. The intra- and inter-assay coefficients of variance were less than 7%. Steroid levels in the plasma, determined by ELISA, were validated by verifying that serial dilutions were parallel to the standard curve.

In test [3] the test system is Tac3R of the striped bass. More on the design: method as in PMID 28330973. The settings on record: cited from earlier work. From the text: (§4) The effect of NKB/NKF peptides on gonadotropin secretion in fish is already well established. The first indication that NKB is widely expressed in fish species and has a stimulatory reproductive effect was shown in zebrafish, goldfish, and tilapia. […] Osetanant re ...

Another test deals with LH secretion. Particulars: OVX ewes, micro-implants in the ARC; cited from earlier work.
Description: as §4

As for `CC[C@H](NC(=O)c1c(C)c(-c2ccccc2)nc2ccccc12)c1ccccc1` [SB-222200], the “sperm production (milt volume)” value in the test with milt volume was “retained a low sperm production after 7 and 14 days compared to that of the control group”. Besides, in the test on LH plasma levels (100 µg/kg BW IP, 2 h after injection, versus sGnRHa, n = 10), the LH plasma levels result is recorded as “significantly lower”. Further, in the test with LH plasma levels (Discussion), the “LH levels in plasma, sole IP injection” value is “decrease in the LH levels in plasma”. In addition, the “LH release, combination with sGnRHa” value in the test with LH plasma levels (antagonist 100 µg/kg BW IP, then sGnRHa 10 µg/kg BW after 0.5 h, n = 10) is recorded as “inhibitory effect on LH release, without any significant change when compared to the sGnRHa; also recorded: drop in LH release”. Moreover, the “LH plasma levels (abstract)” value in the test with LH plasma levels (two hours post intraperitoneal injection) is on record as “decreased LH plasma levels”. Besides, the “Plasma GH and gonadotropins” value in test [1] is on record as “did not change significantly”. Besides, in test [2] (500 µg/kg BW IP every 48 h, day 14), the number of spermatozoa entry is listed as “significantly reduced the number of spermatozoa”. Besides, in test [2] (500 µg/kg BW IP every 48 h, day 14, Figure 9E, *), the “other cells, % of cells” value is recorded as 48.38%. For the same molecule, the “spermatid, % of cells” value in test [2] (500 µg/kg BW IP every 48 h, day 14, control 23.2%, significant) was determined as 10%. Besides, in test [2] (500 µg/kg BW IP every 48 h, day 14, control 23.78%, significant), the “spermatozoa, % of cells” value is 6.63%. In addition, the “spermatogonia, % of cells” value in test [2] (500 µg/kg BW IP every 48 h, day 14, control 32.87%) was found to be 35%. In test [2] (day 14, Figure 9E), the “spermatogonia, count” value is listed as 280. Also, in test [2] (day 14, Figure 9E, *), the “other cells, count” value is 387; the “spermatid, count” value is 80; the “spermatozoa, count” value is recorded as 53. Moreover, the “FSH levels, 2 h post injection, combination with sGnRHa” value in the test on FSH plasma levels is listed as “increased FSH levels”. Further, the 11-KT plasma levels result in the test on 11-KT plasma levels is “significantly delayed the rise of 11-KT levels in plasma”. Further, in test [3], the “antagonistic effect on the Tac3R of the striped bass” value is recorded as “no antagonistic effect”. Also, the LH secretion result in the test with LH secretion is “disrupted LH secretion”.
